Experimental data from patent US20140011799A1 (Bristol-Myers Squibb Company, priority 2012, published 2014).

How the values were obtained:
[1] = target: T1, Endothelial lipase (EL) (Homo sapiens, UniProt Q9Y5X9); experiment: Endothelial lipase (EL) enzymatic assay, fluorescent substrate A10070 in DMPG vesicles; assay type: biochemical; conditions: EL from conditioned media of HT-1080 cells; compound preincubated 30 min at 37° C; read-out: EL IC50
T1 construct: HT-1080 cells that were transformed using RAGE technology (Athersys) to overexpress endogenous EL; endogenous in cells; conditioned medium used
T1 sequence (Q9Y5X9 21-500): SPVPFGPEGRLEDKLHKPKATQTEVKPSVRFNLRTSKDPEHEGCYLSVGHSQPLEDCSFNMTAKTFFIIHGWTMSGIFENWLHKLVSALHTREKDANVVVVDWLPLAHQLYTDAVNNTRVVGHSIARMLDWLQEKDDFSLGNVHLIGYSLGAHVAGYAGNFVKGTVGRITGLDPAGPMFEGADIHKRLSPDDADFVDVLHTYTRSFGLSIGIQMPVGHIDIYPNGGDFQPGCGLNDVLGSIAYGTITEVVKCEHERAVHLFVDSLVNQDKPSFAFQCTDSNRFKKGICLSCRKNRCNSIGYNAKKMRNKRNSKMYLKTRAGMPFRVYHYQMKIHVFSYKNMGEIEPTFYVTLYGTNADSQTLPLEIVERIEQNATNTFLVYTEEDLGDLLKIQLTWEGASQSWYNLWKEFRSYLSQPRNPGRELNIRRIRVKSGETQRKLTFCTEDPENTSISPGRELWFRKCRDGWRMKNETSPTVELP
In short: (§1)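 Vesicles prepared: A10070 dried with DMPG, resuspended in HEPES pH 8.0/NaCl/EDTA, sonicated on ice. Enzyme incubated with compound 30 min at 37° C. Reaction started with 1:10 diluted vesicles. Fluorescence (490/530 nm) followed 60 min; slope from 300–900 secs gives rate.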

[2] = target: T2, hepatic lipase (HL) (Homo sapiens, UniProt P11150); experiment: Hepatic lipase (HL) enzymatic assay, fluorescent substrate A10070 in DMPG vesicles; assay type: biochemical; conditions: HL partially purified from conditioned media of COS cells; compound preincubated 30 min at 37° C; read-out: HL IC50
T2 construct: made in house; host or cells: COS cells (conditioned medium, partially purified)
T2 sequence (P11150 23-499): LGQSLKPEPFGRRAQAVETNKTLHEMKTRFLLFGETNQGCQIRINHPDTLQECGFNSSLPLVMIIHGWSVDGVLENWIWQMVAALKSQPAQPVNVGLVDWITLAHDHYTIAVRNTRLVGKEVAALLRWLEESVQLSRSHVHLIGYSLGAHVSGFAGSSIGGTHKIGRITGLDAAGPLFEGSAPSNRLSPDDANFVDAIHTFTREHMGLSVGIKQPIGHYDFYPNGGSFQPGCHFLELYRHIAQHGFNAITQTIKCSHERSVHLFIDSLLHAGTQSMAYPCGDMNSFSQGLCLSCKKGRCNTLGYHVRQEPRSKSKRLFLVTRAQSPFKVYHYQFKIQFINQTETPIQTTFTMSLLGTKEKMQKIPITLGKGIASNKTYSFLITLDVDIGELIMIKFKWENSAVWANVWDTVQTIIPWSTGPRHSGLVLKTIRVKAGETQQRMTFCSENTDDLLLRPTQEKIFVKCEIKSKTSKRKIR
In short: as §1

| Compound | IC50 [1] | IC50 [2] |
| --- | --- | --- |
| CC1(O)CN(C(=O)c2cccc(-c3ccc4nc(C(c5nnc(CNS(N)(=O)=O)o5)S(=O)(=O)CCC(F)(F)F)sc4c3)c2)C1 (stereo not drawn) [Example 192, N-((5-((6-(3-((3-Hydroxy-3-methyl-1-azetidinyl)carbonyl)phenyl)-1,3-benzothiazol-2-yl)((3,3,3-trifluoropropyl)sulfonyl)methyl)-1,3,4-oxadiazol-2-yl)methyl)sulfamide] | < 10 nM | 81 nM |
| CC(C)NC(=O)c1cccc(-c2ccc3nc(C(c4nnc(CNS(N)(=O)=O)o4)S(C)(=O)=O)sc3c2)c1 (stereo not drawn) [Example 259, 3-{2-[methanesulfonyl({5-[(sulfamoylamino)methyl]-1,3,4-oxadiazol-2-yl})methyl]-1,3-benzothiazol-6-yl}-N-(propan-2-yl) benzamide] | 8 nM | 37 nM |
| CC1(Cc2nnc(C(c3nc4ccc(-c5cccc(C(=O)N6CC[C@H](O)C6)c5)cc4s3)S(C)(=O)=O)o2)NC(=O)NC1=O (stereo partly drawn) [Example 207, 5-({5-[(6-{3-[(3S)-3-hydroxypyrrolidine-1-carbonyl]phenyl}-1,3-benzothiazol-2-yl) (methanesulfonyl)methyl]-1,3,4-oxadiazol-2-yl}methyl)-5-methyl-imidazolidine-2,4-dione] | 22 nM | 370 nM |
| O=C(NCCS(=O)(=O)C(c1nnc(CC2SC(=O)NC2=O)o1)c1nc2cc(F)c(-c3ccccc3)cc2s1)OCc1ccccc1 (stereo not drawn) [Example 167, benzyl (2-(((5-((2,4-dioxo-1,3-thiazolidin-5-yl)methyl)-1,3,4-oxadiazol-2-yl)(5-fluoro-6-phenyl-1,3-benzothiazol-2-yl)methyl)sulfonyl)ethyl)carbamate] | < 10 nM | < 10 nM |
| CS(=O)(=O)C(c1nnc(C[C@@H]2NS(=O)(=O)NC2=O)o1)c1nc2ccc(-c3ccc(C(=O)N4CCOCC4)cc3)cc2s1 (stereo partly drawn) [Example 111, (4S)-4-((5-((methylsulfonyl) (6-(4-(4-morpholinylcarbonyl)phenyl)-1,3-benzothiazol-2-yl)methyl)-1,3,4-oxadiazol-2-yl)methyl)-1,2,5-thiadiazolidin-3-one 1,1-dioxide] | < 10 nM | 629 nM |
| NCCS(=O)(=O)C(c1nnc(CNS(N)(=O)=O)o1)c1nc2ccc(-c3ccccc3)cc2s1 (stereo not drawn) [Example 187, N-[(5-{[(2-aminoethyl)sulfonyl](6-phenyl-1,3-benzothiazol-2-yl)methyl}-1,3,4-oxadiazol-2-yl)methyl] sulfuric diamide] | < 10 nM | 12 nM |
| NS(=O)(=O)NCc1nnc(C(c2nc3ccc(-c4cc(F)nc(F)c4)cc3s2)S(=O)(=O)Cc2ccccc2)o1 (stereo not drawn) [Example 145, N-((5-((benzylsulfonyl)(6-(2,6-difluoro-4-pyridinyl)-1,3-benzothiazol-2-yl)methyl)-1,3,4-oxadiazol-2-yl)methyl)sulfamide] | < 10 nM | 77 nM |
| NS(=O)(=O)NCc1nnc(C(c2nc3ccc(-c4ccc(C(=O)N5CCOCC5)cc4)cc3s2)S(=O)(=O)CCNC(=O)OCc2ccccc2)o1 (stereo not drawn) [Example 134, benzyl {2-[({6-[4-(4-morpholinylcarbonyl)phenyl]-1,3-benzothiazol-2-yl}{5-[(sulfamoylamino)methyl]-1,3,4-oxadiazol-2-yl}methyl)sulfonyl]ethyl} carbamate] | 20 nM | 307 nM |
| CN(C)C(=O)O[C@H](C(=O)NCc1nnc(C(c2nc3ccc(-c4ccccc4)cc3s2)S(C)(=O)=O)o1)C(C)(C)C (stereo partly drawn) [Example 156, (1S)-2,2-dimethyl-1-(((5-((methylsulfonyl)(6-phenyl-1,3-benzothiazol-2-yl)methyl)-1,3,4-oxadiazol-2-yl)methyl)carbamoyl) propyl dimethylcarbamate] | 57 nM | 71 nM |
| COCCS(=O)(=O)C(c1nnc(CNS(N)(=O)=O)o1)c1nc2ccc(-c3cc(F)cc(Cl)c3)cc2s1 (stereo not drawn) [Example 151, N-((5-((6-(3-chloro-5-fluorophenyl)-1,3-benzothiazol-2-yl)((2-methoxyethyl)sulfonyl)methyl)-1,3,4-oxadiazol-2-yl)methyl)sulfamide] | < 10 nM | < 10 nM |
| COCc1ccc(-c2ccc3nc(C(c4nnc(CNS(N)(=O)=O)o4)S(=O)(=O)Cc4ccc(OC(F)(F)F)cc4)sc3c2)cc1 (stereo not drawn) [Example 237, N-{[5-({6-[4-(methoxymethyl)phenyl]-1,3-benzothiazol-2-yl}[4-(trifluoromethoxy)phenyl]methanesulfonylmethyl)-1,3,4-oxadiazol-2-yl]methyl} aminosulfonamide] | 1 nM | 2 nM |
| COCCNC(=O)c1cccc(-c2ccc3nc(C(c4nnc(CNS(N)(=O)=O)o4)S(C)(=O)=O)sc3c2)c1 (stereo not drawn) [Example 262, 3-{2-[methanesulfonyl({5-[(sulfamoylamino)methyl]-1,3,4-oxadiazol-2-yl})methyl]-1,3-benzothiazol-6-yl}-N-(2-methoxyethyl) benzamide] | 14 nM | 45 nM |
| CS(=O)(=O)C(c1nnc(CC2SC(=O)NC2=O)o1)c1nc2ccc(C3=CCOCC3)cc2s1 (stereo not drawn) [Example 99, 5-((5-((6-(3,6-dihydro-2H-pyran-4-yl)-1,3-benzothiazol-2-yl)(methylsulfonyl)methyl)-1,3,4-oxadiazol-2-yl)methyl)-1,3-thiazolidine-2,4-dione] | < 10 nM | 142 nM |
| CS(=O)(=O)C(c1nnc(CNS(N)(=O)=O)o1)c1nc2cc(-c3ncccn3)ccc2s1 (stereo not drawn) [Example 246, N-[(5-{methanesulfonyl[5-(pyrimidin-2-yl)-1,3-benzothiazol-2-yl]methyl}-1,3,4-oxadiazol-2-yl)methyl]aminosulfonamide] | 9 nM | 6 nM |
| CS(=O)(=O)C(c1nnc(CNS(N)(=O)=O)o1)c1nc2ccc(-c3cccc(C(=O)NC4CCC(O)CC4)c3)cc2s1 (stereo not drawn) [Example 258, N-(4-hydroxycyclohexyl)-3-{2-[methanesulfonyl({5-[(sulfamoylamino)methyl]-1,3,4-oxadiazol-2-yl})methyl]-1,3-benzothiazol-6-yl}benzamide] | 8 nM | 35 nM |
| CC1(Cc2nnc(C(c3nc4ccc(-c5cccc(C(=O)N6CC[C@H](F)C6)c5)cc4s3)S(C)(=O)=O)o2)NC(=O)NC1=O (stereo partly drawn) [Example 228, 5-({5-[(6-{3-[(3S)-3-fluoropyrrolidine-1-carbonyl]phenyl}-1,3-benzothiazol-2-yl) (methanesulfonyl)methyl]-1,3,4-oxadiazol-2-yl}methyl)-5-methyl-imidazolidine-2,4-dione] | 114 nM | 170 nM |
| CS(=O)(=O)C(c1nnc(CNS(N)(=O)=O)o1)c1nc2cc(-c3ccc(F)nc3)ccc2s1 (stereo not drawn) [Example 233, N-[(5-{[5-(6-fluoropyridin-3-yl)-1,3-benzothiazol-2-yl] (methanesulfonyl)methyl}-1,3,4-oxadiazol-2-yl)methyl]aminosulfonamide] | 1 nM | 18 nM |
| NS(=O)(=O)NCc1nnc(C(c2nc3ccc(-c4cccc(C(=O)O)c4)cc3s2)S(=O)(=O)CCC(F)(F)F)o1 (stereo not drawn) [Example 191, 3-(2-((5-((Sulfamoylamino)methyl)-1,3,4-oxadiazol-2-yl)((3,3,3-trifluoropropyl)sulfonyl)methyl)-1,3-benzothiazol-6-yl)benzoic acid] | 15 nM | 2670 nM |
| CS(=O)(=O)C(c1nnc(CNS(N)(=O)=O)o1)c1nc2ccc(-c3cnn(CCN4CCOCC4)c3)cc2s1 (stereo not drawn) [Example 132, N-((5-((methylsulfonyl)(6-(1-(2-(4-morpholinyl)ethyl)-1H-pyrazol-4-yl)-1,3-benzothiazol-2-yl)methyl)-1,3,4-oxadiazol-2-yl)methyl) sulfamide] | 32 nM | 22300 nM |
| CC(=O)NS(=O)(=O)Cc1nnc(C(c2nc3ccc(-c4ccccc4)cc3s2)S(C)(=O)=O)o1 (stereo not drawn) [Example 169, N-(((5-((Methylsulfonyl)(6-phenyl-1,3-benzothiazol-2-yl)methyl)-1,3,4-oxadiazol-2-yl)methyl)sulfonyl)acetamide] | < 10 nM | 160 nM |
| COc1cc(-c2ccc3nc(C(c4nnc(CNS(N)(=O)=O)o4)S(=O)(=O)Cc4ccccc4)sc3c2)ccn1 (stereo not drawn) [Example 137, N-((5-((benzylsulfonyl)(6-(2-methoxy-4-pyridinyl)-1,3-benzothiazol-2-yl)methyl)-1,3,4-oxadiazol-2-yl)methyl) sulfamide] | < 10 nM | < 10 nM |
